The source of these data is patent publication US8759558B2, “Sulphur containing lipids for use as food supplement or as medicament” (Pronova Biopharma Norge AS, priority 2008, dated 2014).

For one assay, the system named is Wistar rat. To be noted: Wistar rat model; Willumsen et al 1997; cited from earlier work.
The target in another assay is T1, PPARα (Homo sapiens, UniProt Q07869).
T1 construct: expressed in transfected cells; host or cells: HEK293 cells, transiently transfected
T1 sequence (Q07869 239-466 limits assumed): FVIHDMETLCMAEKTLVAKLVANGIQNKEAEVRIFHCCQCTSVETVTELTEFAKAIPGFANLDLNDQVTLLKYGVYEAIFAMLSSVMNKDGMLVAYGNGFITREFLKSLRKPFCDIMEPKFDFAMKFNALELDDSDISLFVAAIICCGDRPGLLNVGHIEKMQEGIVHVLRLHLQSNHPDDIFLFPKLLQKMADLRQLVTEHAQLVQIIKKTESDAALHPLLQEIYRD
In words: PPARα activation in-vitro, mammalian-one-hybrid (M1H) luciferase reporter assay, concentration response. To be noted: GAL4-DBD-PPARα-LBD, transiently transfected HEK293 cells; for PPARα Efficacy: positive control GW7647. The assay is classed as cell-based. On the procedure:
The assay was carried out in-vitro using mammalian-one-hybrid assays (M1H) comprising GAL4-DNA binding domain-PPARα-LBD fusion constructs in conjunction with 5×GAL4-sites driven Photinus pyralis luciferase reporter construct in transiently transfected HEK293 cells.

Structures are written as SMILES.

For `CC/C=C\C/C=C\C/C=C\C/C=C\CCSCC(=O)OC` [Methyl (all-Z)-3-thia-6,9,12,15-octadecatetraenoate], the plasma triglycerides entry in the assay on Wistar rat is “lowered plasma triglycerides to a similar extent”.

As for `CC(C)(Sc1ccc(CCN(CCCCC2CCCCC2)C(=O)NC2CCCCC2)cc1)C(=O)O` [GW7647], on PPARα, the “PPARα Efficacy” value turned out to be 100%.

Usually EC50 stands for the concentration at which the effect is half-maximal. High values mean a less potent agent, low ones a more potent agent. As for `CC/C=C\C/C=C\C/C=C\C/C=C\C/C=C\CCCCSC(CC)(CC)C(=O)O` [Compound (12), 2-ethyl-2-((5Z,8Z,11Z,14Z,17Z)-icosa-5,8,11,14,17-pentaenylthio)butanoic acid], at PPARα, the EC50 amounted to 0.286 µM and the “PPARα Efficacy” value amounted to 84%.
